Laboratory results taken from patent US20260207623A1, “USE OF ESTETROL IN HEPATICALLY IMPAIRED PATIENTS” (ESTETRA SRL, priority 2022, published 2026).
Where two headings read alike, the source gives them in different places.

Test: Phase 1 pharmacokinetic study of a single oral dose of 20 mg E4 monohydrate in female subjects with normal hepatic function and mild, moderate or severe hepatic impairment (plasma, LC-MS/MS, non-compartmental analysis)
Type: in vivo, human
Conditions: for AUC0-24 h, GM / CL/F, GM / CL/F, Mean / CL/F, Median / Cmax, Mean / λz, GM / λz, Mean / λz, Median / Tmax / AUC(0-inf) / Cmax / AUC(0-t) / half-life / Vd/F: plasma; for Tmax / AUC(0-inf) / Cmax / AUC(0-t) / half-life / Vd/F: female, human, 20 mg
Experimental: This was a Phase 1, multi-centre, open-label, PK, and safety study of a single oral dose of 20 mg E4 monohydrate in female subjects with normal hepatic function (Group 1), mild hepatic impairment (Group 2), moderate hepatic impairment (Group 3), and severe hepatic impairment (Group 4), as defined using the Child-Pugh classification at Screening.
The study consisted of an eligibility Screening period (within 28 days prior to study drug administration), an Assessment Period with in-house period and outpatient visits (including a single oral dose of 20 mg E4 on Day 1), and a follow up visit. All subjects were confined to the study site from Day-1 (the day before dosing) until Day 4 and returned to the site every day from Day 5 to Day 9. Alternatively, the subjects could stay for a prolonged in-house period in agreement with the Investigator. The follow-up visit occurred on Day 14 (+2 days).
All subjects arrived at the study site in the morning of Day-1 in a fasted state (no food for at least 8 h, water was allowed) to have the scheduled assessments performed in order to confirm eligibility as outlined in the inclusion and exclusion criteria (Section 2.3.1 and Section 2.3.2, respectively). In the morning of Day 1 following an overnight fast, the subjects received oral dosing of 20 mg E4 monohydrate and remained at the site. Study-related assessments were performed at time points indicated in the Schedule of Assessments in Table 2.
Serial blood sampling for PK assessments started on Day 1 and proceeded until Day 9 according to the Pharmacokinetic Sampling Schedule presented in Table 3.
Each enrolled subject was to receive a single oral dose of 20 mg of E4 (estetrol) as monohydrate as a film-coated tablet.
Study drug was administered to subjects in the morning after an overnight fast of at least 8 h.
Calculation of non-compartmental PK parameters were done using WinNonlin™ Professional, Version 6.3 or higher.
The primary PK parameters to be analyzed for E4 in plasma: • Cmax=maximum observed plasma concentration • AUCinf=area under the concentration-time curve (AUC) from time zero extrapolated to infinity
The analysis of E4 and the metabolites E4-3-glucuronide and E4-16-glucuronide in plasma samples were performed at the Bioanalytical Laboratory of the CRO using a validated liquid chromatography-mass spectrometry/mass spectrometry method.
Individual and mean plasma concentrations at each sampling time point for E4 are presented by listings and descriptive summary statistics including means, geometric means (GMs), medians, ranges, standard deviations (SD) and coefficients of variation (CV). Individual, mean and/or median concentrations per hepatic function group were plotted versus time on semilogarithmic scales.
PK parameters were calculated by non-compartmental analysis. PK parameters were analysed using descriptive statistics and are presented by hepatic function group.
Analysis of variance (ANOVA) were used to compare primary PK parameters of E4 (Cmax and AUCinf) between subjects with hepatic impairment and subjects with normal hepatic function in an exploratory approach, using the log-transformed value of each PK parameter as dependent variable, and the hepatic impairment group (normal, mild, moderate, and severe) as a fixed classification factor. Geometric least squares means were used to calculate the ratios of primary PK parameters for each hepatic impairment group to those in the control group, along with 90% confidence intervals (CIs).
Additionally, the impact of age and BMI on the effect of hepatic impairment were evaluated using an ANOVA model similar as the ANOVA model described above, but with the interaction between each factor and the hepatic impairment group included as an additional factor.
The relationship between log-transformed PK parameters (Cmax and AUCinf) and continuous parameters (albumin, total bilirubin, and prothrombin time) used for the Child-Pugh score was explored by a linear regression approach. […]

[1] = Mild hepatic impairment, single oral dose 20 mg E4 monohydrate
[2] = Moderate hepatic impairment, single oral dose 20 mg E4 monohydrate
[3] = Moderate vs. Normal, one-way ANOVA
[4] = Normal hepatic function, single oral dose 20 mg E4 monohydrate
[5] = Severe hepatic impairment, single oral dose 20 mg E4 monohydrate
[6] = Severe vs. Normal, one-way ANOVA

SMILES: C[C@]12CC[C@@H]3c4ccc(O)cc4CC[C@H]3[C@@H]1[C@@H](O)[C@@H](O)[C@@H]2O [E4, 1,3,5 (10)-estratrien-3,15alpha, 16alpha, 17beta-tetrol]
- AUC0-24 h, GM [1]: 69.76 ng·h/mL
- CL/F, GM [1]: 171.23 L/h
- CL/F, Mean [1]: 177.13 L/h
- CL/F, Median [1]: 188.75 L/h
- Cmax, Mean [1]: 38.363 ng/mL
- λz, GM [1]: 0.0300 h⁻¹
- λz, Mean [1]: 0.0373 h⁻¹
- λz, Median [1]: 0.0428 h⁻¹
- AUCinf, Geometric Mean Ratio (Test/Reference) Estimate (Mild vs. Normal, one-way ANOVA): 1.120
- Cmax, Geometric Mean Ratio (Test/Reference) Estimate (Mild vs. Normal, one-way ANOVA): 1.661
- AUC0-24 h, GM [2]: 88.75 ng·h/mL
- CL/F, GM [2]: 185.80 L/h
- CL/F, Mean [2]: 214.77 L/h
- CL/F, Median [2]: 175.13 L/h
- Cmax, Mean [2]: 52.410 ng/mL
- λz, GM [2]: 0.0500 h⁻¹
- λz, Mean [2]: 0.0520 h⁻¹
- λz, Median [2]: 0.0493 h⁻¹
- AUCinf, Geometric Mean Ratio (Test/Reference) Estimate [3]: 1.032
- Cmax, Geometric Mean Ratio (Test/Reference) Estimate [3]: 1.896
- AUC0-24 h, GM [4]: 60.41 ng·h/mL
- CL/F, GM [4]: 191.77 L/h
- CL/F, Mean [4]: 200.09 L/h
- CL/F, Median [4]: 177.60 L/h
- Cmax, Mean [4]: 23.878 ng/mL
- λz, GM [4]: 0.0300 h⁻¹
- λz, Mean [4]: 0.0329 h⁻¹
- λz, Median [4]: 0.0307 h⁻¹
- AUC0-24 h, GM [5]: 179.05 ng·h/mL
- CL/F, GM [5]: 101.25 L/h
- CL/F, Mean [5]: 104.83 L/h
- CL/F, Median [5]: 111.40 L/h
- Cmax, Mean [5]: 117.025 ng/mL
- λz, GM [5]: 0.0800 h⁻¹
- λz, Mean [5]: 0.0905 h⁻¹
- λz, Median [5]: 0.1108 h⁻¹
- AUCinf, Geometric Mean Ratio (Test/Reference) Estimate [6]: 1.894
- Cmax, Geometric Mean Ratio (Test/Reference) Estimate [6]: 5.359
- plasma levels at 24 h after administration (comparison among hepatic function groups): in the same range among the different hepatic function groups
- Tmax (oral, across all hepatic function groups, read-out: Tmax, range): 0.23 to 1.92 h
- Tmax (oral, all hepatic function groups, read-out: Median Tmax, range over the hepatic function groups): 0.25 to 0.5 h
- AUC(0-inf) (po, Mild (Test), one-way ANOVA, single oral dose 20 mg, read-out: AUCinf, Geometric LS Mean): 117 ng·h/mL
- Cmax (po, Mild (Test), one-way ANOVA, single oral dose 20 mg, read-out: Cmax, Geometric LS Mean): 34.5 ng/mL
- AUC(0-t) (po, Mild hepatic impairment, single oral dose 20 mg E4 monohydrate, read-out: AUC0-24 h, GM): 69.8 ng·h/mL
- AUC(0-t) (po, Mild hepatic impairment, single oral dose 20 mg E4 monohydrate, read-out: AUC0-24 h, Mean): 72.9 ng·h/mL
- AUC(0-t) (po, Mild hepatic impairment, single oral dose 20 mg E4 monohydrate, read-out: AUC0-24 h, Median): 66.3 ng·h/mL
- AUC(0-inf) (po, Mild hepatic impairment, single oral dose 20 mg E4 monohydrate, read-out: AUCinf, GM): 117 ng·h/mL
- AUC(0-inf) (po, Mild hepatic impairment, single oral dose 20 mg E4 monohydrate, read-out: AUCinf, Mean): 122 ng·h/mL
- AUC(0-inf) (po, Mild hepatic impairment, single oral dose 20 mg E4 monohydrate, read-out: AUCinf, Median): 106 ng·h/mL
- AUC(0-t) (po, Mild hepatic impairment, single oral dose 20 mg E4 monohydrate, read-out: AUClast, GM): 116 ng·h/mL
- AUC(0-t) (po, Mild hepatic impairment, single oral dose 20 mg E4 monohydrate, read-out: AUClast, Mean): 121 ng·h/mL
- AUC(0-t) (po, Mild hepatic impairment, single oral dose 20 mg E4 monohydrate, read-out: AUClast, Median): 105 ng·h/mL
- Cmax (po, Mild hepatic impairment, single oral dose 20 mg E4 monohydrate, read-out: Cmax, GM): 34.5 ng/mL
- Cmax (po, Mild hepatic impairment, single oral dose 20 mg E4 monohydrate, read-out: Cmax, Mean): ~38 ng/mL
- Cmax (po, Mild hepatic impairment, single oral dose 20 mg E4 monohydrate, read-out: Cmax, Median): 34.9 ng/mL
- half-life (po, Mild hepatic impairment, single oral dose 20 mg E4 monohydrate, read-out: T1/2, GM (converted)): 20.1 h
- half-life (po, Mild hepatic impairment, single oral dose 20 mg E4 monohydrate, read-out: T1/2, Mean (converted)): 22.1 h
- half-life (po, Mild hepatic impairment, single oral dose 20 mg E4 monohydrate, read-out: T1/2, Median (converted)): 16.2 h
- Tmax (po, Mild hepatic impairment, single oral dose 20 mg E4 monohydrate, read-out: Tmax, Median): 0.375 h
- Vd/F (po, Mild hepatic impairment, single oral dose 20 mg E4 monohydrate, read-out: Vz/F, GM): 4960 L
- Vd/F (po, Mild hepatic impairment, single oral dose 20 mg E4 monohydrate, read-out: Vz/F, Mean): 5830 L
- Vd/F (po, Mild hepatic impairment, single oral dose 20 mg E4 monohydrate, read-out: Vz/F, Median): 4800 L
- AUC(0-inf) (po, Moderate (Test), one-way ANOVA, single oral dose 20 mg, read-out: AUCinf, Geometric LS Mean): 108 ng·h/mL
- Cmax (po, Moderate (Test), one-way ANOVA, single oral dose 20 mg, read-out: Cmax, Geometric LS Mean): 39.4 ng/mL
- AUC(0-t) (po, Moderate hepatic impairment, single oral dose 20 mg E4 monohydrate, read-out: AUC0-24 h, GM): 88.8 ng·h/mL
- AUC(0-t) (po, Moderate hepatic impairment, single oral dose 20 mg E4 monohydrate, read-out: AUC0-24 h, Mean): 103 ng·h/mL
- AUC(0-t) (po, Moderate hepatic impairment, single oral dose 20 mg E4 monohydrate, read-out: AUC0-24 h, Median): 92.6 ng·h/mL
- AUC(0-inf) (po, Moderate hepatic impairment, single oral dose 20 mg E4 monohydrate, read-out: AUCinf, GM): 108 ng·h/mL
- AUC(0-inf) (po, Moderate hepatic impairment, single oral dose 20 mg E4 monohydrate, read-out: AUCinf, Mean): 123 ng·h/mL
- AUC(0-inf) (po, Moderate hepatic impairment, single oral dose 20 mg E4 monohydrate, read-out: AUCinf, Median): 115 ng·h/mL
- AUC(0-t) (po, Moderate hepatic impairment, single oral dose 20 mg E4 monohydrate, read-out: AUClast, GM): 107 ng·h/mL
